The text below walks through data of patent US20240251788A1, “HERBICIDE/SAFENER COMBINATION BASED ON SAFENERS FROM THE CLASS OF SUBSTITUTED [(1,5-DIPHENYL-1H-1,2,4-TRIAZOL-3-YL)OXY]ACETIC ACIDS AND THEIR SALTS” (Bayer Aktiengesellschaft, priority 2021, published 2024).

Data set [1] relates to summer barley crop plant (HORVS: cv. Quench). Nature of the data set: Reduction in herbicide damage to summer barley by safener, greenhouse post-emergence application, visual scoring. It is filed as in vivo. On the set-up: key to Reduction in the damage by safener (difference): difference in % visual damage, 0-100% scale vs untreated plants. The conditions noted are these: for Reduction in the damage by safener (difference) / Reduction in the damage by safener (in %): summer barley (HORVS); for Damage to the plant by the herbicide (in %): in vivo. How it is done: (§1) The seeds of the crop plants to be treated are laid out in soil in woodfiber pots (diameter ˜ 7 cm), covered with soil and grown in a greenhouse under good conditions for germination and growth. The trial plants were treated at the early leaf stage (BBCH10-BBCH12).
The herbicides used (component B) were used in the following formulations: • B2.81: WP • B2.85: WP • B2.92: WP • Clomazone: WP • Ethofumesate: WP • Flufenacet: SC • Fluroxypyr: EC • Saflufenacil: WP • Thiencarbazone-methyl: WP • Iodosulfuron-methyl-sodium: WP • Bifenox: WP • Glyphosate potassium salt: SL • Topramezone: WP
(§2) The dose of the respective herbicides was chosen here such that it causes an average degree of visually apparent damage (min. 20%, max. 75%) compared to untreated crop plants at the evaluation time on a control group of crop plants without safener treatment that were included in the same trial.
(§3) In the respective herbicide/safener combinations, the safeners (component A) in the form of wettable powders (WP) were added in the dose specified; in these cases, herbicide and safener are thus applied as a mixture.
(§4) Application was effected in each case on to the above-ground parts of the plant, at a water application rate corresponding to 300 l/ha and with addition of wetting agent (Mero, 1.5 l/h a).
In the applications that contained pinoxaden or topramezone, the herbicidal effect was enhanced by additionally adding ammonium sulfate (2 kg/ha).
(§5) After application, the plants were cultivated under good growth conditions in a greenhouse. On account of the different mechanisms of action of the herbicides used, the damaging effect of the herbicides was fully manifested at different times depending on the herbicide, and this in turn forms the basis for assessment of the safener action in the mixtures. Therefore, the damage was scored visually, depending on the herbicide/mixture, between 11 and 21 days after application.
(§6) The damage effect was assessed visually on a scale of 0-100% by comparison with untreated control plants, and averaged over 2 repeats per treatment.

Data set [2] concerns summer wheat crop plant (TRZAS; cv. Triso). The experiment in a line: Reduction in herbicide damage to summer wheat by safener, greenhouse post-emergence application, visual scoring. The class given is in vivo. The arrangement: key to Reduction in the damage by safener (difference): difference in % visual damage (0-100% scale vs untreated) due to safener. The conditions noted are these: for Reduction in the damage by safener (difference) / Reduction in the damage by safener (in %): summer wheat (TRZAS); for Damage to the plant by the herbicide (in %): in vivo. How it is done:
as §1
The herbicides used (component B) were used in the following formulations: • B2.81: WP • B2.85: WP • B2.92: WP • Cinmethylin: EC • Clomazone: WP • Ethofumesate: WP • Flufenacet: SC • Pinoxaden: WP • Saflufenacil: WP • Bicyclopyrone: WP • Picloram: WP • Metazachlor: SC • Flumioxazin: WP • Glyphosate potassium salt: SL • Topramezone: WP
as §2, §3, §4
In the applications that contained pinoxaden, bicyclopyrone or topramezone, the herbicidal effect was enhanced by additionally adding ammonium sulfate (2 kg/ha).
as §5, §6

Setting [3] is: herbicide B2.28 (flufenacet) 2000 g a.i./ha + safener 100 g a.i./ha.
Where [4] appears, read: herbicide B2.28 (flufenacet) 4000 g a.i./ha + safener 100 g a.i./ha.
The mark [5] stands for this setting: herbicide B2.34 (iodosulfuron) 10 g a.i./ha + safener 100 g a.i./ha.
The mark [6] stands for this setting: herbicide B2.68 (thiencarbazone-methyl) 30 g a.i./ha + safener 100 g a.i./ha.
The mark [7] stands for this setting: herbicide B2.81 15 g a.i./ha + safener 100 g a.i./ha.
[8] abbreviates: herbicide B2.85 5 g a.i./ha + safener 100 g a.i./ha.
Where [9] appears, read: herbicide B2.92 5 g a.i./ha + safener 100 g a.i./ha.
Setting [10] is: herbicide B4.28 (topramezone) 300 g a.i./ha + safener 100 g a.i./ha.
[11] abbreviates: herbicide B5.21 (ethofumesate) 2000 g a.i./ha + safener 100 g a.i./ha.
Setting [12] is: herbicide B6.4 (fluroxypyr) 500 g a.i./ha + safener 100 g a.i./ha.
The mark [13] stands for this setting: herbicide B7.5 (glyphosate) 400 g a.i./ha + safener 100 g a.i./ha.
Where [14] appears, read: herbicide B8.6 (bifenox) 600 g a.i./ha + safener 100 g a.i./ha.
[15] abbreviates: herbicide B1.2 (bicyclopyrone) 400 g a.i./ha + safener 100 g a.i./ha.
Where [16] appears, read: herbicide B1.8 (pinoxaden) 200 g a.i./ha + safener 100 g a.i./ha.
Setting [17] is: herbicide B2.38 (metazachlor) 4000 g a.i./ha + safener 100 g a.i./ha.
The mark [18] stands for this setting: herbicide B5.13 (cinmethylin) 500 g a.i./ha + safener 100 g a.i./ha.
Setting [19] is: herbicide B5.13 (cinmethylin) 1000 g a.i./ha + safener 100 g a.i./ha.
The mark [20] stands for this setting: herbicide B5.14 (clomazone) 200 g a.i./ha + safener 100 g a.i./ha.
[21] abbreviates: herbicide B5.26 (flumioxazin) 20 g a.i./ha + safener 100 g a.i./ha.
Where [22] appears, read: herbicide B6.5 (picloram) 400 g a.i./ha + safener 100 g a.i./ha.
[23] abbreviates: herbicide B9.10 (saflufenacil) 20 g a.i./ha + safener 100 g a.i./ha.

On to `COC(=O)COc1nc(-c2ccc(Cl)cc2F)n(-c2ccc(F)cc2F)n1` [Compound A3, methyl {[5-(4-chloro-2-fluorophenyl)-1-(2,4-difluorophenyl)-1H-1,2,4-triazol-3-yl]oxy}acetate], for which the “Reduction in the damage by safener (difference)” value (shortened to “Reduction … (difference)”) in data set [1] (setting [3]) worked out at 15; in data set [1] (setting [4]) it was 35; in data set [1] (setting [5]), 25; in data set [1] (setting [6]), 30; in data set [1] (setting [7]), 70; in data set [1] (setting [8]), 15. Moreover, the “Reduction … (difference)” value came out at 30 in data set [1] (setting [9]); 40 in data set [1] (setting [10]); 60 in data set [1] (setting [11]); 20 in data set [1] (setting [12]); 50 in data set [1] (setting [13]); 35 in data set [1] (setting [14]). Moreover, the “Reduction … (difference)” value was determined as 25 in data set [2] (setting [15]); 15 in data set [2] (setting [16]); 30 in data set [2] (setting [3]); 40 in data set [2] (setting [4]); 30 in data set [2] (setting [17]); 15 in data set [2] (setting [7]). In addition, the “Reduction … (difference)” value amounted to 20 in data set [2] (setting [10]); 25 in data set [2] (setting [18]); 25 in data set [2] (setting [19]); 15 in data set [2] (setting [20]); 70 in data set [2] (setting [11]); 25 in data set [2] (setting [21]). Further, the “Reduction … (difference)” value in data set [2] (setting [22]) was found to be 20; in data set [2] (setting [13]), 35. Besides, the “Reduction in the damage by safener (in %)” value (“Reduction … (in %)” below) stood at 50% in data set [1] (setting [3]); 70% in data set [1] (setting [4]); 56% in data set [1] (setting [5]); 100% in data set [1] (setting [6]); 100% in data set [1] (setting [7]); 25% in data set [1] (setting [8]). Moreover, the “Reduction … (in %)” value in data set [1] (setting [9]) is reported as 46%; in data set [1] (setting [10]), 80%; in data set [1] (setting [11]) it was 100%; in data set [1] (setting [12]), 100%; in data set [1] (setting [13]) it was 83%; in data set [1] (setting [14]), 88%. Besides, the “Reduction … (in %)” value is on record as 42% in data set [2] (setting [15]); 43% in data set [2] (setting [16]); 100% in data set [2] (setting [3]); 100% in data set [2] (setting [4]); 75% in data set [2] (setting [17]); 21% in data set [2] (setting [7]). Moreover, the “Reduction … (in %)” value in data set [2] (setting [10]) is reported as 50%; in data set [2] (setting [18]), 100%; in data set [2] (setting [19]), 100%; in data set [2] (setting [20]), 38%; in data set [2] (setting [11]), 100%; in data set [2] (setting [21]), 42%. In addition, the “Reduction … (in %)” value in data set [2] (setting [22]) turned out to be 80%; in data set [2] (setting [13]), 78%.

As to `COC(=O)COc1nc(-c2ccc(F)cc2F)n(-c2ccc(Cl)cc2F)n1` [Compound A5, methyl {[1-(4-chloro-2-fluorophenyl)-5-(2,4-difluorophenyl)-1H-1,2,4-triazol-3-yl]oxy}acetate], the “Reduction … (difference)” value in data set [1] (setting [6]) is 30; in data set [1] (setting [7]) it was 20; in data set [1] (setting [8]) it was 40; in data set [1] (setting [9]), 50; in data set [1] (setting [11]), 60; in data set [1] (setting [12]), 15. Also, the “Reduction … (difference)” value in data set [1] (setting [23]) is recorded as 15; in data set [2] (setting [16]) it was 20; in data set [2] (setting [7]), 20; in data set [2] (setting [8]), 50; in data set [2] (setting [9]), 55; in data set [2] (setting [20]) it was 15. Further, the “Reduction … (difference)” value in data set [2] (setting [11]) came out at 70. The “Reduction … (in %)” value in data set [1] (setting [6]) is 100%; in data set [1] (setting [7]) it was 29%; in data set [1] (setting [8]), 67%; in data set [1] (setting [9]), 77%; in data set [1] (setting [11]), 100%; in data set [1] (setting [12]) it was 75%. Besides, the “Reduction … (in %)” value came out at 38% in data set [1] (setting [23]); 57% in data set [2] (setting [16]); 29% in data set [2] (setting [7]); 83% in data set [2] (setting [8]); 92% in data set [2] (setting [9]); 38% in data set [2] (setting [20]). In addition, the “Reduction … (in %)” value in data set [2] (setting [11]) was 100%.

For `C=C[C@]1(C(=O)N[C@H]2C=C[C@@H](C(=O)OC)C2)CC(c2cc(F)cc(F)c2)=NO1` [Compound B2.85, methyl (1S,4R)-4-[[[(5S)-3-(3,5-difluorophenyl)-5-vinyl-4H-1,2-oxazol-5-yl]carbonyl]amino]cyclopent-2-ene-1-carboxylate], the “Damage to the plant by the herbicide (in %)” value (“Damage to the plant … (in %)” below) in data set [1] and in data set [2] was 60% each time.

Turning to `C[C@]1(C(=O)N[C@H]2C=C[C@@H](C(=O)O)C2)CC(c2cc(F)cc(F)c2)=NO1` [Compound B2.92, (1S,4R)-4-[[(5R)-3-(3,5-difluorophenyl)-5-methyl-4H-isoxazole-5-carbonyl]amino]cyclopent-2-ene-1-carboxylic acid], the results for the “Damage to the plant … (in %)” value in data set [1] and in data set [2] were 65% and 60%, respectively.

Turning to `CC1(C)CON(Cc2ccccc2Cl)C1=O` [Compound B5.14, clomazone, reference compound], the “Damage to the plant … (in %)” value in data set [1] and in data set [2] was 40% each time.
